The source made the active and inactive calls.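 The calls were made as follows: active = compounds giving half or more protection of infected cells from virus-caused growth loss, again on retest; inactive = the rest.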
Test system: CEM cells HIV-1 protection, formazan growth assay
Test: NCI AIDS Antiviral Assay
Conditions: for IC50: measured here: growth of uninfected CEM cells
Outline: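 Protection of CEM cells against HIV-1 was scored from cell growth (soluble formazan) across five concentrations, with parallel uninfected cells. Lack of protection may reflect toxicity.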

Row | SMILES | EC50 [µM] | IC50 [µM] | outcome
1 | CC(CN(C)C)C(=O)c1ccccc1 (centres undefined) | > 912 | 55 | –
2 | O=C1N/C(=C\[N+](=O)[O-])c2ccccc21 | > 501 | 263 | –
3 | CC1(C)OCC2(CO1)CSCCCSCC1(COC(C)(C)OC1)CSCCCSC2 | > 10.5 | > 10.5 | –
4 | Cn1c(=O)cc(/C=C/c2ccnc3ccccc23)c2ccccc21 | > 200 | > 200 | –
5 | O=C(OCC1OC(OC(=O)c2cc(O)c(O)c(OC(=O)c3cc(O)c(O)c(O)c3)c2)C(OC(=O)c2cc(O)c(O)c(OC(=O)c3cc(O)c(O)c(O)c3)c2)C(OC(=O)c2cc(O)c(O)c(OC(=O)c3cc(O)c(O)c(O)c3)c2)C1OC(=O)c1cc(O)c(O)c(OC(=O)c2cc(O)c(O)c(O)c2)c1)c1cc(O)c(O)c(OC(=O)c2cc(O)c(O)c(O)c2)c1 (centres undefined) | > 60.3 | 6.76 | –
6 | COC(=O)c1c(C)cc(OC(=O)c2c(C)cc(O)c(/C=N\Nc3ccccc3)c2O)c(C)c1O | > 200 | 9.77 | –
7 | CCCCCCCCCCCCCCCCP(=O)([O-])OCC[N+](C)(C)C | > 200 | 12 | –
8 | CCOC(=O)NC(Nc1ncn(C(NC(=O)OCC)(C(F)(F)F)C(F)(F)F)n1)(C(F)(F)F)C(F)(F)F | > 200 | > 200 | –
9 | Cc1nc2ccccc2c(=O)n1N1C2CCCC21 (centres undefined) | > 200 | > 200 | –
10 | CCN(CC)CCN(C(=Nc1ccccc1)N1CCOCC1)c1ccccc1 | > 200 | 41.7 | –
11 | O=C(/C=C/c1ccc(O)c(O)c1)O[C@H](C(=O)O)[C@H](OC(=O)/C=C/c1ccc(O)c(O)c1)C(=O)O | > 85.1 | 20 | –
12 | CC12CC(=O)NN=C1c1ccccc1C2 (centres undefined) | – | – | inactive
13 | Cc1cc(C)c(-n2c(-c3ccc(Br)cc3)cs/c2=N\N=C2C=C(C(C)(C)C)C(=O)C(C(C)(C)C)=C2)c(C)c1 | > 2.45 | > 2.45 | –
14 | Cc1c(C)c2c(c(N)c1C#N)C(=O)N(O)C2=O | > 200 | > 200 | –
15 | O=c1ccn(CC2(CO)CC(Cc3ccccc3)C2)c(=O)[nH]1 (centres undefined) | > 200 | > 200 | –
16 | COC(=O)c1cc(CC2Cc3cc4c(cc3C2)CCC4)cc2c1CCC2 | > 200 | > 200 | –
17 | CC(=O)CCC#Cc1ccccc1C(=O)C(C)=[N+]=[N-] | > 50.1 | > 50.1 | –
18 | Nc1nc2c3c(ncn3CC(O)CO2)n1 (centres undefined) | > 9.55 | > 9.55 | –
19 | O=C1c2ccccc2C(=O)N1CCS(=O)(=O)CCS(=O)(=O)CCN1C(=O)c2ccccc2C1=O | > 200 | > 200 | –
20 | CC(=O)OCC(OC(C)=O)C(OC(C)=O)C(OC(C)=O)C(=O)CNn1c(-c2ccccc2Cl)nc2ccc(Br)cc2c1=O (centres undefined) | – | – | inactive
21 | Cn1cnc(CCc2ccccc2)n1 | > 1120 | > 1120 | –
22 | O=[N+]([O-])c1cc(SSc2ccc(Cl)c([N+](=O)[O-])c2)ccc1Cl | > 60.3 | 13.2 | –

Row | SMILES | EC50 [µM] | IC50 [µM] | outcome
23 | O=S1(=O)OC(c2cc(Br)c(O)c(Br)c2)(c2cc(Br)c(O)c(Br)c2)c2c(Br)c(Br)c(Br)c(Br)c21 | – | – | inactive
24 | S=c1sc2sc(=S)sc2s1 | – | – | inactive
25 | Cc1cc2c(-c3ccccc3)cc(=O)[nH]c2cc1N | 186 | > 200 | –
26 | N/C(=N\N=C\c1cccc2ccccc12)N/N=C/c1cccc2ccccc12 | > 200 | 9.12 | –
27 | C=C(C)CNC(=S)N(N)c1ccc(OC)cc1 | > 200 | 69.2 | –
28 | CCC(=O)C1(c2ccccc2)CCN(C)CC1 | > 1070 | – | –
29 | NC(=S)N/N=C1\CCCc2ccccc21 | > 162 | 81.3 | –
30 | CC1(C)OC(CCC#N)CN1C(=O)OCc1ccccc1 (centres undefined) | > 200 | 135 | –
31 | COc1c(Cl)cc(C(=Cc2c(F)c(F)c(F)c(F)c2F)c2cc(Cl)c(OC)c(C(=O)O)c2)cc1C(=O)O | 324 | 490 | –
32 | COc1ccc2c(c1)CC[C@@H]1C2CC[C@]2(C)C(=C=CP(=O)(O)O)CCC12 (some centres undefined) | > 200 | > 200 | –
33 | COC(=O)c1ccccc1NCc1cc(O)ccc1O | > 200 | 30.9 | –
34 | CCOC(=O)C(CC/C=C\c1ccccc1)N1CCC[C@H]1C(=O)OC (some centres undefined) | – | – | inactive
35 | CCOC(=O)c1sc(SC)nc1NC(=O)c1ccc([N+](=O)[O-])cc1 | > 200 | > 200 | –
36 | C1CCCN(NC2=NCCO2)CC1 | 93.3 | 1000 | –
37 | CCOC(=O)/C(=C\c1ccccc1)[Se]c1ccccc1 | > 56.2 | > 56.2 | –
38 | CCOC(=O)c1ccc(C(=O)/C(C#N)=C2\CCCN2)[nH]1 | > 200 | 89.1 | –
39 | COC(=O)C1=C(O)C(O)=C(C(=O)OC)CC1 | 468 | 912 | –
40 | CCC/C=[N+](\[O-])[C@@H]1CC(n2cc(C)c(=O)[nH]c2=O)OC1CO[Si](C)(C)C(C)(C)C (some centres undefined) | > 200 | 107 | –
41 | CCOC(=O)c1c2c(n3ccc(C)cc13)C(=O)C(c1ccc([N+](=O)[O-])cc1)S2 (centres undefined) | – | – | inactive
42 | CC(C)=NOC(=O)OC[C@H]1O[C@@H](n2cnc3c(N)ncnc32)C(O)C1O (some centres undefined) | > 200 | > 200 | –
43 | COC(=O)C1(C#N)C(C)(C)N=C(c2ccccc2)C12CCCCC2 (centres undefined) | > 200 | 93.3 | –

— PubChem BioAssay AID179 (DTP/NCI, 2004)
